Marks after values point to notes of the source that are not given here.
Tested on: high fat fed mice
Assay: Metabolic response to GIP after 21 days treatment
Type: in vivo
Method: Twice daily (09:30 and 17:30 h) i.p. injections of saline vehicle (0.9% w/v NaCl), polypeptides (at 25 nmol/kg bw) were administered for 21 days in high fat mice. Energy intake and body weight were monitored daily, and non-fasting blood glucose and plasma insulin concentrations were assessed at 3 day intervals. On day 21, a non-fasted 24 h glucose profile was conducted. At the end of the treatment period, i.p. glucose tolerance (18 mmol/kg bw), biological response to GIP (18 mmol/kg glucose in combination with native GIP (25 nmol/kg); i.p.) and insulin sensitivity (15 U/kg bw; i.p.) tests were performed. HOMA-IR was determined using the equation HOMA-IR=fasting glucose (mmol/l)×fasting insulin (mU/l)/22.5. All test solutions were administered in a final volume of 5 ml/kg body weight, at 10:00 h without previous 09:30 h peptide injection. Terminal analysis included measurement of total body fat and lean mass by DEXA scanning (Piximus Densitometer, Inside Outside Sales, Madison Wis., USA) and extraction of pancreatic tissue for analysis as detailed below. Immunohistochemistry Pancreatic tissue was excised, divided longitudinally and either immediately snap frozen for subsequent extraction of insulin using acid ethanol extraction (5 ml/g) as described by Irwin et al., 2015 (Diabetes. 2015 August; 64(8):2996-3009), or processed for immunohistochemical examination. Briefly, pancreatic tissues were fixed in 4% parafolmaldehyde at 4° C. for 48 h. Pancreata were then embedded in paraffin wax and processed using an automated tissue processor (Leica TP1020, Leica Microsystems, Nussloch, Germany). Immunohistochemistry was performed as described by Vasu et al., 2014 (PLoS One. 2014 Jun. 26; 9(6):e101005). Succinctly, tissue sections were deparaffinised, rehydrated and probed with primary antibodies: mouse anti-insulin antibody (1:500; Abcam, ab6995) or guinea-pig anti-glucagon antibody (PCA2/4, 1:400; raised in-house). The sections were then incubated with secondary antibody, Alexa Fluor 488 goat anti-guinea pig IgG (1:400) or Alexa Fluor 594 goat anti-mouse IgG (1:400); respectively. The slides were viewed under a FITC (488 nm) or TRITC filter (594 nm) using a fluorescent microscope (Olympus system microscope, model BX51) and photographed using a DP70 camera adapter system. Islet parameters were analysed using Cell^F image analysis software (Olympus Soft Imaging Solutions, GmbH).
Tests were conducted after twice daily treatment with saline vehicle (0.9% (w/v) NaCl), (DAla^2)GIP and (DAla^2)GIP/xenin-8-Gln (each at 25 nmol/kg bw) for 21 days. For glucose tolerance test, blood glucose and plasma insulin concentrations were measured before and 15, 30, 60 and 105 min after i.p injection of glucose (18 mmol/kg bw). For metabolic response to GIP, blood glucose and plasma insulin concentrations were measured before and 15, 30, 60 and 105 min after i.p injection of glucose (18 mmol/kg bw) in combination with GIP (25 nmol/kg bw). All studies were conducted in 18 h fasted mice. AUC values (0-105 min) for blood glucose and plasma insulin are shown. Values represent means±SEM for 6-8 mice. *P<0.05, **P<0.01, […] compared to high fat controls. ^ΔP<0.05, ^ΔΔP<0.01, ^ΔΔΔP<0.001 compared to lean controls.

[1] = 0-105 min, glucose 18 mmol/kg + GIP 25 nmol/kg i.p., 18 h fasted, after 21 days treatment, mean ± SEM

`CC[C@H](C)[C@H](NC(=O)[C@H](CO)NC(=O)[C@H](Cc1ccc(O)cc1)NC(=O)[C@H](CC(=O)O)NC(=O)[C@H](CO)NC(=O)[C@@H](NC(=O)[C@H](Cc1ccccc1)NC(=O)[C@@H](NC(=O)CNC(=O)[C@H](CCC(=O)O)NC(=O)[C@@H](C)NC(=O)[C@@H](N)Cc1ccc(O)cc1)[C@@H](C)O)[C@@H](C)CC)C(=O)N[C@@H](C)C(=O)N[C@@H](CCSC)C(=O)N[C@@H](CC(=O)O)C(=O)N[C@@H](CCCCN)C(=O)N[C@H](C(=O)N[C@@H](Cc1c[nH]cn1)C(=O)N[C@@H](CCC(N)=O)C(=O)N[C@@H](CCC(N)=O)C(=O)N[C@@H](CC(=O)O)C(=O)N[C@@H](Cc1ccccc1)C(=O)N[C@H](C(=O)N[C@@H](CC(N)=O)C(=O)N[C@@H](Cc1c[nH]c2ccccc12)C(=O)N[C@@H](CC(C)C)C(=O)N[C@@H](CC(C)C)C(=O)N[C@@H](C)C(=O)N[C@@H](CCC(N)=O)C(=O)N[C@@H](CCCCN)C(=O)NCC(=O)N[C@@H](CCCCN)C(=O)N[C@@H](CCCCN)C(=O)N[C@@H](CC(N)=O)C(=O)N[C@@H](CC(=O)O)C(=O)N[C@@H](Cc1c[nH]c2ccccc12)C(=O)N[C@@H](CCCCN)C(=O)N[C@@H](Cc1c[nH]cn1)C(=O)N[C@@H](CC(N)=O)C(=O)N[C@H](C(=O)N[C@H](C(=O)N[C@@H](CCC(N)=O)C(=O)O)[C@@H](C)O)[C@@H](C)CC)C(C)C)[C@@H](C)CC` [(DAla2)GIP, TYR-(d)ALA-GLU-GLY-THR-PHE-ILE-SER-ASP-TYR-SER-ILE-ALA-MET-ASP-LYS-ILE-HIS-GLN-GLN-ASP-PHE-VAL-ASN-TRP-LEU-LEU-ALA-GLN-LYS-GLY-LYS-LYS-ASN-ASP-TRP-LYS-HIS-ASN-ILE-THR-GLN] was tested, and the “Metabolic response to GIP Blood glucose AUC” value [1] was 1029.5 ± 138.0* mmol/l · min, the “Metabolic response to GIP Plasma insulin AUC” value [1] was 142.3 ± 19.2**^,ΔΔΔ ng/ml · min and the “Glucose lowering and insulin releasing actions of native GIP” value (21 days treatment) was “significantly (P<0.05) improved”. For the same compound, the “Decrease of overall blood glucose AUC in response to GIP vs saline treated control mice” value (21 days treatment, P<0.05) was 36% and the “GIP-induced elevations of plasma insulin (AUC)” value (21 days treatment, vs high fat controls) was “significantly (P<0.05 to P<0.01) augmented”.

— patent US11738065B2, “Polypeptides and analogues thereof for use in the treatment of diabetes and bone disorders” (UNIVERSITY OF ULSTER, priority 2015, dated 2023)
